Measured values: patent US4056631A, “Method of combatting ticks” (Showa Denko K.K., priority 1973, dated 1977)

Experiments:
Boophilus microplus [1] = experiment: Test 1: inhibition of oviposition by Boophilus microplus (acetone solution dropped on back of blood-fed females); conditions: Rhipicephalus microplus, topical, 336 h, read-out: Inhibition Ratio of Oviposition by Boophilus microplus
Excerpt: (§3) One each of the adults of female Boophilus microplus or Haemaphysalis longicornis which had been allowed to suck blood fully was placed in a flat bottom test tube having a diameter of 10 millimeters and a depth of 35 millimeters. After rendering the chemicals to be tested into acetone solutions, the solutions were dropped to the back of the ticks in an amount corresponding to 110 gamma per one gram of body weight, using a micro syringe after which the acetone was evaporated. The test tube was then transferred to a desiccator containing a small portion of water where it was left standing at a constant temperature of 30° C., and the ticks were allowed to oviposit. Two weeks later, the amount of eggs laid per 1 gram of body weight was counted. Using this value and the amount of eggs laid in the case of the control group not treated with the chemicals, the rate of inhibition of oviposition was obtained as follows: [formula] where A is the number of eggs laid per gram of body weight of ticks of the group not treated with chemicals,
(§4) B is the number of eggs laid per gram of body weight of ticks of the group treated with chemicals.
(§5) The foregoing ratio was used to indicate the effectiveness of the chemicals tested.

[2] = test system: Haemaphysalis longicornis; experiment: Test 1: inhibition of oviposition by Haemaphysalis longicornis (acetone solution dropped on back of blood-fed females); conditions: topical, 336 h, read-out: Inhibition Ratio of Oviposition by Haemaphysalis longicornis
Excerpt: as §3, §4, §5

Boophilus microplus [3] = experiment: Test 2: killing of tick larvae of Boophilus microplus (immersion in emulsified aqueous solution); type: in vivo; conditions: Rhipicephalus microplus, immersed 2 to 5 minutes, 25° C. for 24 hours, read-out: Combatting Effect of Larvae of Boophilus microplus (mortality of unfed larvae)
Procedure: (§1) Groups of 50 to 100 larvae of Boophilus microplus and Haemaphysalis longicornis of about two weeks old placed in paper packets were immeresed for 2 to 5 minutes in an emulsified aqueous solution of the test compounds of a concentration of 100 ppm, and the larvae were incubated at 25° C. for 24 hours according to the procedure described by Stone and Haydock (1962), and the rate of the larvae killed were determined. Each figure indicates mortality of unfed larvae after treatment with the test compounds.

[4] = Test 4: acute oral toxicity in mice; set-up: species or system mice (male albino, strain ddY); conditions: mouse, in vivo, single dose, observed for a week
Procedure: Acute oral toxicity was determined by using male albino mice strain ddY, 5 weeks old. The test compounds were administered orally once and the LD50 values were calculated after observing for a week.

[5] = test system: Haemaphysalis longicornis; experiment: Test 2: killing of tick larvae of Haemaphysalis longicornis (immersion in emulsified aqueous solution); type: in vivo; conditions: immersed 2 to 5 minutes, 25° C. for 24 hours, read-out: Combatting Effect of Larvae of Haemaphysalis longicornis (mortality of unfed larvae)
Procedure: as §1

Boophilus microplus [6] = experiment: Test 3: killing adults of Boophilus microplus (spray of diluted Recipe 1 emulsion); type: in vivo; set-up: key: (+): presence of deaths was observed; (-): there were no deaths; conditions: female adults
Procedure: (§2) An emulsion was prepared in accordance with the foregoing Recipe 1, using as its active ingredient the compound No. 12. Several classes of spraying liquids having the concentrations indicated in Table 3 were prepared by diluting this emulsion with water. Ten female Boophilus microplus which had sucked blood fully were placed on a filter paper, and the liquid described above was sprayed onto the ticks with a glass sprayer in an amount such that the liquid would flow down the backs of the ticks. The ticks were then immediately transferred to a wet filter paper disposed in a Petri dish, and when the liquid on the backs of the ticks became somewhat dried, the dish was covered. The Petri dish was then held at a constant temperature of 30° C. for two weeks, after which the total amount of eggs laid was counted. During the time the Petri dish was held at a constant temperature, the inside of the Petri dish was maintained in a state of high humidity by dropping a small amount of water onto the filter paper daily. The effectiveness was judged by the rate of eggs laid by the several treated groups relative to the total eggs laid in the case of the ticks of the control group, which had been sprayed with only water. On the other hand, the effectiveness in killing the female adults was judged by observation of the presence or absence of deaths. The case where the presence of deaths was observed is indicated with the symbol (+), and the case where there were no deaths is indicated with the symbol (-).

Boophilus microplus [7] = experiment: Test 3: inhibiting oviposition by Boophilus microplus (spray of diluted Recipe 1 emulsion); type: in vivo; conditions: relative to water-sprayed control, two weeks, 30° C.
Procedure: as §2

mice = conditions: heretofore known tickicide; cited from earlier work
[8] = concentration of compound 0.003%
[9] = concentration of compound 0.01%
[10] = concentration of compound 0.03%

| SMILES | pest or weed control at 110 µg/g (Boophilus microplus [1]) [%] | pest or weed control at 110 µg/g [2] [%] | mortality at 100 ppm (Boophilus microplus [3]) [%] | mortality at 100 ppm [5] [%] | other results |
| --- | --- | --- | --- | --- | --- |
| CCCCCCCCCN=C=NC(C)(C)c1ccccc1 [Compound 10, N-n-nonyl-N'-(2-phenyl-2-propyl)carbodiimide] | 100 | 100 | – | – | – |
| CNC(=O)Oc1cccc2ccccc12 [Control Chemical II, reference compound] | 27 | – | – | – | – |
| CCCCCCN=C=NC(C)(C)c1ccccc1 [Compound 6, N-n-hexyl-N'-(2-phenyl-2-propyl)carbodiimide] | 96.3 | 100 | 74.6 | – | LD50 at 168 h [4]: 2000 mg/kg |
| CCCCCCCCCCN=C=NC(C)(C)c1ccccc1 [Compound 11, N-n-decyl-N'-(2-phenyl-2-propyl)carbodiimide] | 93.1 | 100 | – | – | – |
| CCCCCCCCN=C=NC(C)(C)c1ccccc1 [Compound 8, N-n-octyl-N'-(2-phenyl-2-propyl)carbodiimide] | 100 | 100 | 68.5 | – | LD50 at 168 h [4]: 6000 mg/kg |
| CCCCCCCCCCCCCCCCCCN=C=NC(C)(C)c1ccccc1 [Compound 15, N-n-stearyl-N'-(2-phenyl-2-propyl)carbodiimide] | – | 98 | – | – | – |
| CC(C)(N=C=NC1CCCCC1)c1ccccc1 [Compound 16, N-cyclohexyl-N'-(2-phenyl-2-propyl)carbodiimide] | 100 | – | 100 | – | LD50 at 168 h [4]: 6000 mg/kg |
| CCCCCCCCCCCCN=C=NC(C)(C)c1ccccc1 [Compound 12, N-n-dodecyl-N'-(2-phenyl-2-propyl)carbodiimide] | 100 | 100 | 86.5 | 82.2 | LD50 at 168 h [4]: > 16000 mg/kg; Effectiveness in Killing Adults (Boophilus microplus [6]; [8]): (-); Effectiveness in Killing Adults (Boophilus microplus [6]; [9]): (-); Effectiveness in Killing Adults (Boophilus microplus [6]; [10]): (-); Effectiveness in Killing Adults (Boophilus microplus [6]; concentration of compound 0.1%): (+); Effectiveness in Killing Adults (Boophilus microplus [6]; concentration of compound 0.3%): (+); Effectiveness in Killing Adults (Boophilus microplus [6]; concentration of compound 1%): (+); Rate of Eggs Laid (Boophilus microplus [7]; [8]): 94.8%; Rate of Eggs Laid (Boophilus microplus [7]; [9]): 85.5%; Rate of Eggs Laid (Boophilus microplus [7]; [10]): 62.6%; Rate of Eggs Laid (Boophilus microplus [7]; concentration of compound 0.1%): 0%; Rate of Eggs Laid (Boophilus microplus [7]; concentration of compound 0.3%): 0%; Rate of Eggs Laid (Boophilus microplus [7]; concentration of compound 1%): 0% |
| CC(C)(N=C=NCc1ccc(Cl)cc1)c1ccccc1 [Compound 26, N-p-chlorobenzyl-N'-(2-phenyl-2-propyl)carbodiimide] | – | – | 81.9 | 86.4 | – |
| CC(C)(N=C=Nc1ccc(Cl)c(Cl)c1)c1ccccc1 [Compound 22, N-3,4-dichlorophenyl-N'-(2-phenyl-2-propyl)carbodiimide] | – | – | – | 82.5 | – |
| Cc1ccc(N=C=NC(C)(C)c2ccccc2)cc1 [Compound 19, N-p-tolyl-N'-(2-phenyl-2-propyl)carbodiimide] | – | – | 81.8 | 86.6 | – |
| CC(C)(N=C=NCc1ccco1)c1ccccc1 [Compound 27, N-furfuryl-N'-(2-phenyl-2-propyl)carbodiimide] | – | – | 77.8 | 91.1 | – |
| CCCCC(CC)CN=C=NC(C)(C)c1ccccc1 (centres unmarked) [Compound 9, N-(2-ethyl-n-hexyl)-N'-(2-phenyl-2-propyl)carbodiimide] | – | 100 | – | 100 | LD50 at 168 h [4]: 7000 mg/kg |
| CC(C)(N=C=NCCc1ccccc1)c1ccccc1 [Compound 25, N-β-phenylethyl-N'-(2-phenyl-2-propyl)carbodiimide] | 100 | 100 | 91.2 | 100 | – |
| Cc1cc(Cl)ccc1N=CN(C)C [Control Chemical I, reference compound] | 78.2 | – | – | – | LD50 at 168 h [4]: 160 mg/kg |
| CCOP(=S)(OCC)Oc1nc(Cl)c(Cl)cc1Cl [Control Chemical III, O,O-diethyl O-(3,5,6-trichloro-2-pyridyl)phosphorothioate, reference compound] | – | – | – | – | LD50 at 168 h [4]: 70 mg/kg; LD50 for mice (mice): 70 mg/kg |
| CC(C)N=C=NC(C)(C)c1ccccc1 [Compound 3, N-iso-propyl-N'-(2-phenyl-2-propyl) carbodiimide] | – | – | 96.4 | – | – |
| CC1CC(N=C=NC(C)(C)c2ccccc2)CC(C)(C)C1 (centres unmarked) [Compound 17, N-(3,3,5-trimethylcyclohexyl)-N'-(2-phenyl-2-propyl)carbodiimide] | 100 | 100 | 100 | 100 | LD50 at 168 h [4]: 11000 mg/kg |
| CC(C)(C)N=C=NC(C)(C)c1ccccc1 [Compound 4, N-tert-butyl-N'-(2-phenyl-2-propyl)carbodiimide] | – | – | – | 80.3 | – |
| CC(N=C=NC(C)(C)c1ccccc1)c1ccccc1 (stereo not drawn) [Compound 24, N-α-phenylethyl-N'-(2-phenyl-2-propyl)carbodiimide] | – | 100 | 99.5 | 99.1 | – |
| COc1ccc(N=C=NC(C)(C)c2ccccc2)c(C)c1 [Compound 21, N-p-methoxy-o-tolyl-N'-(2-phenyl-2-propyl)carbodiimide] | – | – | – | 100 | – |
| CCCCCCCCCCCCCCN=C=NC(C)(C)c1ccccc1 [Compound 13, N-n-myristyl-N'-(2-phenyl-2-propyl)carbodiimide] | 85 | 100 | 92.8 | – | – |
| CC(C)(N=C=Nc1ccccc1)c1ccccc1 [Compound 18, N-phenyl-N'-(2-phenyl-2-propyl)carbodiimide] | – | – | 100 | 100 | – |
| CCCCCCCN=C=NC(C)(C)c1ccccc1 [Compound 7, N-n-heptyl-N'-(2-phenyl-2-propyl)carbodiimide] | 100 | 100 | – | – | – |
| COc1ccc(N=C=NC(C)(C)c2ccccc2)cc1 [Compound 20, N-p-methoxyphenyl-N-'-(2-phenyl-2-propyl)carbodiimide] | – | – | – | 96.4 | – |
| CCCN=C=NC(C)(C)c1ccccc1 [Compound 2, N-n-propyl-N'-(2-phenyl-2-propyl)carbodiimide] | 100 | – | – | – | – |
| CCCCCN=C=NC(C)(C)c1ccccc1 [Compound 5, N-n-pentyl-N'-(2-phenyl-2-propyl)carbodiimide] | – | 100 | – | 100 | – |
| CC(C)(N=C=NCc1ccccc1)c1ccccc1 [Compound 23, N-benzyl-N'-(2-phenyl-2-propyl)carbodiimide] | 81.9 | – | 100 | 99.1 | – |
| CCN=C=NC(C)(C)c1ccccc1 [Compound 1, N-ethyl-N'-(2-phenyl-2-propyl)carbodiimide] | – | – | – | 98 | – |
| CCCCCCCCCCCCCCCCN=C=NC(C)(C)c1ccccc1 [Compound 14, N-n-cetyl-N'-(2-phenyl-2-propyl)carbodiimide] | – | 96.6 | – | 80.3 | – |
